{"source": "paper PMC12261233", "about": "“Photoactivatable Cyclometalated Ir(III) Compound Penetrates the Blood-Brain Barrier in 3D Spheroidal and Advanced 3D Organoid Models of Inherently Resistant and Aggressive Brain Tumors” (ACS Pharmacology & Translational Science, 2025)", "key": {"[1]": {"tested_on": "cerebral organoid with U87MG spheroid implant", "assay": "Distribution of compound in organoid-spheroid implant model (confocal)", "type": "cell-based, human", "details": "5 μM", "description": "An implant fusion model was established to monitor the distribution of Ir4 within the tumor, represented by the implanted tumorspheres generated from U87MG, and healthy tissue, represented by the hiPSC-derived cerebral organoid. Before the implantation procedure, spheroids derived from U87MG glioblastoma were cultured for 72 h under 3D forming conditions using ULA plates (96-well U-shaped plate, Corning) in DMEM-F12 supplemented with 2% B27, epidermal growth factor (EGF) at 20 ng mL^–1, fibroblast growth factor 2 (FGF2) at 10 ng mL^–1, and BSA (0.15%). Cerebral organoids were generated through a four-step directed differentiation process from human induced pluripotent stem cells (hiPSCs, Gibco). The hiPSCs were cultured on Geltrex matrix (hESC-Qualified, Reduced Growth Factor Basement Membrane Matrix; Gibco) in StemFlex basal medium (DMEM/F12, Ham, 1:1) fully supplemented with StemFlex supplement (Gibco). […] After the initial differentiation phase, early organoids were monitored for the development of optically clear neuroectoderm (characterized by an optically bright, translucent surface) and the formation of large buds of translucent ectoderm that were not radially organized. […] The samples were then transferred to confocal Petri dishes containing drug-free cerebral maturation medium and analyzed using a confocal microscope (Leica CM SP5, Leica, Germany)."}, "U87MG spheroids": {"tested_on": "U87MG spheroids", "assay": "Detection of ROS (CellRox) and PPI in spheroids by confocal microscopy", "type": "cell-based, human", "description": "We evaluated ROS induction in glioblastoma U87MG spheroids treated with Ir4 at its IC50 concentration for 3 h, followed by blue laser light irradiation (405 nm, 60 s, 1 mW). ROS levels were quantified using the CellRox probe, with PPI employed to assess immediate cell death. Z-stack imaging was performed before irradiation and at 1, 15, and 30 min postirradiation (Figure , panel I). Mean fluorescence intensity in the z-stack projections quantified ROS generation (Figure , panel II).\nThe spheroids were exposed to Ir4 (IC50, U87MG 3D, 72 h) for 3 h or maintained under drug-free conditions (control). Subsequently, the samples were stained with CellRox reagent (5 μM) and PPI (8 μg mL^–1) before being irradiated for 60 s with blue laser light (405 nm, 1 mW). Imaging of the samples was conducted before or immediately after the irradiation (1 min postirradiation) and at defined time intervals (15 and 30 min). The fluorescence scanning was performed sequentially in z-stack mode (10 z-stacks). Postirradiation imaging was conducted for a total of 90 min, with only the data collected up to 30 min being presented and quantified. The experiments were independently replicated in triplicate."}, "[2]": {"assay": "Photocatalytic oxidation of NADH under blue light", "type": "biochemical", "details": "blue light 465 nm, 4.8 mW cm^–2; NADH 100 µM, complex 5 µM", "description": "Photostability is essential for PDT agents, as photobleaching can compromise their effectiveness. […] Control experiments in the absence of Ir(III) complexes (Figure S24) or light (Figure S25) corroborated the photocatalytic character of this transformation. […] Additionally, singlet oxygen (^1O2) is the primary cytotoxic species in Type II PDT. , The ability of complexes Ir3–Ir5 and Ir10 to generate singlet oxygen was evaluated by measuring the decrease in […] (DPBF) absorbance at 411 nm under blue light irradiation (Figure S26). […] This confirmed the production of hydroxyl radicals, particularly with complexes Ir3 and Ir10, after 8 min of irradiation (Figure S29).\n1. Photocatalytic properties of complexes Ir1−Ir10 in cell-free media.\n1.1. Photooxidation of NADH.\nThe ability of the complexes to photocatalyse the oxidation of NADH was evaluated by recording the absorption spectra of NADH (100 µM) in the presence of complex (5 µM) in PBS (5% DMF) upon blue light irradiation (EXPO-Panels from Luzchem (Canadá)) (465 nm, 5.0 […]\n1.2. Quantum yields for the generation of 1O2. […]\nWhere ΦΔR is the reference quantum yield, mR and mS are the slopes of the reference and sample, respectively, and AR and AS are the absorbance of the reference and the sample at the […]"}}}
{"smiles": "CCCCn1c2[n+](c3cc(C(=O)OC)ccc31)[Ir-3]13([Cl])([c]4ccccc4-2)[n+]2ccccc2-c2cc(-c4ccc(C)cc4)cc([n+]21)-c1cccc[n+]13.F[P-](F)(F)(F)(F)F", "note": "[Ir4]", "values": [{"measurement": "distribution in organoid-spheroid fusion system", "setting": "[1]", "result": "predominantly accumulated in malignant tissues"}, {"measurement": "PPI fluorescence intensity postirradiation", "setting": "U87MG spheroids; 15 and 30 min postirradiation", "result": "slight but significant increase"}, {"measurement": "ROS level compared to preirradiation level, 1 min", "setting": "U87MG spheroids; IC50 3 h, 405 nm 60 s 1 mW, 1 min postirradiation", "result": 1.8, "unit": "fold"}, {"measurement": "ROS level compared to preirradiation level, 15 min", "setting": "U87MG spheroids; IC50 3 h, 405 nm 60 s 1 mW, 15 min postirradiation", "result": 2.3, "unit": "fold"}, {"measurement": "ROS level compared to preirradiation level, 30 min", "setting": "U87MG spheroids; IC50 3 h, 405 nm 60 s 1 mW, 30 min postirradiation", "result": 2.5, "unit": "fold"}, {"measurement": "ROS level versus untreated controls before laser irradiation", "setting": "U87MG spheroids; IC50 (U87MG 3D, 72 h) for 3 h, CellRox, dark", "result": 1.8, "unit": "times"}]}
{"smiles": "Cc1ccc(-c2cc3[n+]4c(c2)-c2cccc[n+]2[Ir-3]42([Cl])([c]4cc5ccccc5cc4-c4n(Cc5ccc(C(F)(F)F)cc5)c5ccccc5[n+]42)[n+]2ccccc2-3)cc1.F[P-](F)(F)(F)(F)F", "note": "[Ir3]", "values": [{"measurement": "Turnover Frequency (TOF) of NADH photo-oxidation", "setting": "[2]", "result": "about 110 h^–1"}]}
